Target: T1, PAPD5 (Homo sapiens, UniProt Q8NDF8)
T1 construct: made in house
Experiment: High-throughput luminescence (KinaseGlo) RNA polyadenylation assay, ATP utilization by recombinant PAPD5
Format: biochemical
Details: Table 4 (entries of Table 5), ratio of luminescence with inhibitor to DMSO; for Fold-change determined at compound concentration 33 μM: 33 μM compound; for Fold-change determined at compound concentration 100 μM: 100 μM compound, higher = higher inhibition
Description: Optimal conditions for an in vitro RNA polyadenylation assay using recombinant PAPD5, ATP and an oligonucleotide substrate were identified. The HTS assay involved ATP utilization by PAPD5, which reads out as a decreased luminescence signal produced by luciferase (KinaseGlo, Promega, Madison, WI).
100 nl of compound dissolved in DMSO was transferred to each well of the assay plate via pin transfer. For negative control wells, DMSO alone was added. Plates were gently vortexed for 5 seconds, then incubated for 2 hours at room temperature.
After 2 hours, 5 ul of luciferase (Promega KinaseGlo, Madison, WI) was added using a MultiDrop Combi (Thermo Fisher Scientific, Waltham, MA). The mixture was gently vortexed for 5 seconds and incubated for 10 minutes at room temperature. Plates were spun for 1 minute prior to luminescence measurements. Luminescent measurements were quantitated using a PerkinElmer EnVision™ plate reader.
˜100,000 compounds from various libraries at the ICCB-Longwood were screened in this manner in duplicate.
The fold change was the ratio of luminescence from a sample with inhibitor compared to that with DMSO. Thus, a higher number indicates higher inhibition.

T1 sequence (Q8NDF8 68-698 isoform Q8NDF8-5): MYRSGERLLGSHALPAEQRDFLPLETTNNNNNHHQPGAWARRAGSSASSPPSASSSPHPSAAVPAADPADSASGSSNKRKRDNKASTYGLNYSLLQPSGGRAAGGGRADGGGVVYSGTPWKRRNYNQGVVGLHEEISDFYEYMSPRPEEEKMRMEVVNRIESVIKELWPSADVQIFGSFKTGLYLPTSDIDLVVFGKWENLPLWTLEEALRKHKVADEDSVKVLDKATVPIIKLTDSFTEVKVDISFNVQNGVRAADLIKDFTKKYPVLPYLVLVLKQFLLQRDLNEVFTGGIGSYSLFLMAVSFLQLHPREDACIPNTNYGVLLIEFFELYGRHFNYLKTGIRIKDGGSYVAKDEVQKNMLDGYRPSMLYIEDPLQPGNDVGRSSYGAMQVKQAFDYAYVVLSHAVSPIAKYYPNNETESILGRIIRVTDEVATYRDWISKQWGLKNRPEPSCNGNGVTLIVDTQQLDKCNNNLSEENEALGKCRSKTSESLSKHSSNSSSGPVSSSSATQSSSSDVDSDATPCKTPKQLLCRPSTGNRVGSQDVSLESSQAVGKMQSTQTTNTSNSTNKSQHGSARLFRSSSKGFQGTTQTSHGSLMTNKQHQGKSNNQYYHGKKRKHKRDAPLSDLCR

SMILES | Fold-change determined at compound concentration 33 μM | Fold-change determined at compound concentration 100 μM
O=C(O)Cc1c2ccccc2n2c1[nH]c(=O)c1ccccc12 [Entry 222, 2-(5-oxo-6H-indolo[1,2-a]quinazolin-7-yl)acetic acid] | 1.05 | 1.205
Cc1nnc(NC(=O)c2cc(=O)c3cc(F)ccc3o2)s1 [Entry 120, 6-fluoro-N-(5-methyl-1,3,4-thiadiazol-2-yl)-4-oxo-4H-chromene-2-carboxamide] | 1.1 | 1.381
O=c1c2c([nH]c3nc(CNc4ccccc4F)nn13)CCC2 [Entry 153, 2-{[(2-fluorophenyl)amino]methyl}-4,5,6,7-tetrahydro-8H-cyclopenta[d][1,2,4]triazolo[1,5-a]pyrimidin-8-one] | 1.077 | 1.259
Cc1cccc2c1-c1sc(C(=O)NCCCN3CCC(C)CC3)cc1CO2 [Entry 226, 9-methyl-N-[3-(4-methylpiperidin-1-yl)propyl]-4H-thieno[3,2-c]chromene-2-carboxamide] | 1.095 | 1.228
O=C1c2cnccc2CN1c1cc(F)ccc1F [Entry 212, 2-(2,5-difluorophenyl)-1H-pyrrolo[3,4-c]pyridin-3-one] | 1.077 | 1.799
Cc1ccc2c(=O)cc(C(=O)Nc3nnc(CC(C)C)s3)oc2c1C [Entry 126, 7,8-dimethyl-N-[5-(2-methylpropyl)-1,3,4-thiadiazol-2-yl]-4-oxochromene-2-carboxamide] | 1.15 | 1.302
c1cc(OCCN2CCCCC2)cc(-c2n[nH]c3ccc(-c4ncn[nH]4)cc23)c1 [Entry 160, 3-[3-(2-piperidin-1-ylethoxy)phenyl]-5-(1H-1,2,4-triazol-5-yl)-1H-indazole] | 1.075 | 1.239
COc1ccc(-c2[nH]nc3nc(-c4cc(Br)ccc4OC)cc(C(=O)O)c23)cc1 [Entry 179, 6-(5-bromo-2-methoxyphenyl)-3-(4-methoxyphenyl)-2H-pyrazolo[3,4-b]pyridine-4-carboxylic acid] | 1.112 | 1.309
CN(C)S(=O)(=O)c1ccc2c(c1)c(C(=O)n1ccnc1)cn2C [Entry 108, 3-(I-Imidazole-1-carbonyl)-N,N,1-trimethylindole-5-sulfonamide] | 1.256 | 1.547
CCOC(=O)Cc1cc(=O)oc2cc(O)cc(O)c12 [Entry 128, Ethyl (5,7-dihydroxy-2-oxo-2H-chromen-4-yl)acetate] | 1.314 | 1.957
Cc1ccc(C(=O)Nc2c(-c3ccccc3)nc3ccccn23)cc1C [Entry 189, 3,4-dimethyl-N-(2-phenylimidazo[1,2-a]pyridin-3-yl)benzamide] | 1.206 | 1.311
Cc1ccc2cccc(NC(=O)c3cccnc3)c2n1 [Entry 86, N-(2-methylquinolin-8-yl)nicotinamide] | 1.085 | 1.233
Cc1c2c(=O)n(-c3nc4ccccc4s3)[nH]c2cc(=O)n1Cc1ccc(C(=O)O)cc1 [Entry 177, 4-[[2-(1,3-benzothiazol-2-yl)-4-methyl-3,6-dioxo-1H-pyrazolo[4,3-c]pyridin-5-yl]methyl]benzoic acid] | 1.053 | 1.4
COc1ccc(Nc2ncnc3sc(C(=O)O)c(C)c23)cc1OC [Entry 40, 4-(3,4-dimethoxyanilino)-5-methylthieno[2,3-d]pyrimidine-6-carboxylic acid] | 1.589 | 2.956
O=S(=O)(Nc1ccc2nncn2n1)c1ccc(Br)cc1 [Entry 49, 4-bromo-N-([1,2,4]triazolo[4,3-b]pyridazin-6-yl)benzenesulfonamide] | 1.105 | 1.318
COc1ccc(NC(=O)c2ccc3c(SCC(=O)O)c4c(nc3c2)CCCC4)c(OC)c1 [Entry 88, [(6-{[(2,4-dimethoxyphenyl)amino]carbonyl}-1,2,3,4-tetrahydroacridin-9-yl)thio]acetic acid] | 1.082 | 1.276
CC(C)Cn1c(=O)c(-c2ccc(C(=O)Nc3ccc4c(c3)OCCO4)cc2)nc2ccccc21 [Entry 219, N-(2,3-dihydro-1,4-benzodioxin-6-yl)-4-[4-(2-methylpropyl)-3-oxoquinoxalin-2-yl]benzamide] | 1.086 | 1.339
COC(=O)c1c(NC(=O)c2ccccc2C(=O)O)sc2c1CCCC2 [Entry 199, 2-({[3-(methoxycarbonyl)-4,5,6,7-tetrahydro-1-benzothien-2-yl]amino}carbonyl)benzoic acid] | 1.199 | 1.607
CCOc1cc(-c2cc(C(=O)O)c3c(-c4ccccc4)[nH]nc3n2)ccc1O [Entry 181, 6-(3-ethoxy-4-hydroxyphenyl)-3-phenyl-2H-pyrazolo[3,4-b]pyridine-4-carboxylic acid] | 1.124 | 1.272
CCCCN(CC)C(=O)CCCn1c(=O)c2cccn2c2ccccc21 [Entry 66, N-butyl-N-ethyl-4-(4-oxopyrrolo[1,2-a]quinoxalin-5-yl)butanamide] | 1.083 | 1.229
Cc1nn(CC(=O)O)c(=O)c2cc3cc(F)ccc3n12 [Entry 214, 2-(8-fluoro-4-methyl-1-oxo-[1,2,4]triazino[4,5-a]indol-2-yl)acetic acid] | 1.118 | 1.213
c1ccc(CC2CCN(c3nnc(Cc4ccncc4)c4ccccc34)CC2)cc1 [Entry 55, 1-(4-benzylpiperidin-1-yl)-4-(pyridin-4-ylmethyl)phthalazine] | 1.262 | 1.592
Cc1cc2[nH]c(=O)c(=O)[nH]c2cc1S(=O)(=O)Nc1ccc(OC(F)(F)F)cc1 [Entry 137, 7-methyl-2,3-dioxo-N-[4-(trifluoromethoxy)phenyl]-1,4-dihydroquinoxaline-6-sulfonamide] | 1.12 | 1.301
